{"source": "patent US20100190717A1", "about": "“USE OF MELANIN CONCENTRATING HORMONE AND MET-ENKEPHALIN AS THERAPEUTIC AGENTS” (priority 2007, published 2010)", "key": {"[1]": {"tested_on": "Interleukin-5 (IL-5) in spleen cells", "experiment": "Th1/Th2 cytokine profiling assay: IL-5", "assay_type": "cell-based, Balb/c mice", "conditions": "10 micrograms per ml; Ovalbumin-restimulated spleen cells, 72 hours", "quoted_text": "The Balb/c mice (originated in 1923, it is a popular strain and is used in many different research disciplines. Also classified as an inbred from the production of 20 or more successive brother-sister matings, the Balb/c mouse is albino and small in size) were immunized on Days 1, 15, and 29 with Ovalbumin (Ovalbumin is the main protein found in egg white, commonly used to stimulate an immunological reaction in test animals) in PBS (5 micrograms/injection). On day 50, spleens of the mice were harvested (3 weeks after last boost with Ovalbumin). Cells were cultured (2×10^5/well in triplicate) and incubated with culture medium or test peptides—10 micrograms per ml—for 30 min. Thereafter, additional Ovalbumin was added to the cells at 10 micrograms/ml for in vitro restimulation of the cells. 72 hours later, cell supernatants were harvested and assayed using the Becton Dickinson Mouse Th1/Th2 Cytokine CBA Kit. This kit can be used to measure Interleukin-2 (IL-2), Interleukin-4 (IL-4), Interleukin-5 (IL-5), Interferon-γ (IFN-γ), and Tumor Necrosis Factor-α (TNF-α) protein levels in a single sample. The kit performance has been optimized for analysis of physiologically relevant concentrations (μg/ml levels) of specific cytokine proteins in tissue culture supernatants and serum samples."}, "[2]": {"tested_on": "Interleukin-4 (IL-4) in spleen cells", "experiment": "Th1/Th2 cytokine profiling assay: IL-4", "assay_type": "cell-based, Balb/c mice", "conditions": "10 micrograms per ml; Ovalbumin-restimulated spleen cells, 72 hours"}, "[3]": {"tested_on": "hepatitis B virus (HBV) ayw strain", "experiment": "HBV assay in HepG2-2.2.15 cells (TaqMan PCR of secreted HBV DNA)", "assay_type": "cell-based", "conditions": "10 micrograms per ml; HepG2-2.2.15, six days"}, "[4]": {"tested_on": "Interleukin-2 (IL-2) in spleen cells", "experiment": "Th1/Th2 cytokine profiling assay: IL-2", "assay_type": "cell-based, Balb/c mice", "conditions": "10 micrograms per ml; Ovalbumin-restimulated spleen cells, 72 hours"}, "[5]": {"tested_on": "LPS-induced TNF-alpha production in human macrophages", "experiment": "TNF alpha production assay (LPS-stimulated macrophages, ELISA)", "assay_type": "cell-based", "conditions": "10 micrograms per ml; LPS 200 ng/ml, overnight", "excerpt": "Not stimulated macrophages served as negative background control."}, "[6]": {"tested_on": "Human Peripheral Blood Mononuclear Cells (PBMC), B cell proliferation", "experiment": "B cell proliferation assay (SAC plus Interleukin-2 stimulated PBMC, 3H-thymidine)", "assay_type": "cell-based", "conditions": "10 micrograms per ml", "description": "Human Peripheral Blood Mononuclear Cells (PBMC) were obtained from normal human donors. The B cell proliferation was induced by stimulation of the cells with the B cell mitogen Staphylococcus aureus Cowans I (SAC) plus Interleukin-2, either in the absence (positive proliferation control), or in the presence of test peptides—10 micrograms per ml—to examine their effects on the B cell response. 10^5/well PBMC were plated in 96-well microtiter plates and assayed in duplicate with the peptides. […] At the end of incubation time, the plates were harvested and the cells counted by liquid scintillation for the incorporation of ^3H-thymidine as a measure of B cell proliferation."}, "[7]": {"tested_on": "Interferon-γ (IFN-γ) in spleen cells", "experiment": "Th1/Th2 cytokine profiling assay: IFN-γ", "assay_type": "cell-based, Balb/c mice", "conditions": "10 micrograms per ml; Ovalbumin-restimulated spleen cells, 72 hours"}, "[8]": {"tested_on": "Primary Human endothelial cells (HUVEC)", "experiment": "Endothelial cell migration assay", "assay_type": "cell-based", "conditions": "10 micrograms per ml, 22 hours", "method": "Thereafter, designated concentration of testing peptides—10 micrograms per ml—was added in duplicate wells."}, "[9]": {"tested_on": "Tumor Necrosis Factor-α (TNF-α) in spleen cells", "experiment": "Th1/Th2 cytokine profiling assay: TNF-α", "assay_type": "cell-based, Balb/c mice", "conditions": "10 micrograms per ml; Ovalbumin-restimulated spleen cells, 72 hours"}, "HCMV strain AD169": {"tested_on": "HCMV strain AD169", "experiment": "HCMV plaque formation assay in MRC-5 cells", "conditions": "for inhibition of HCMV plaque formation compared to the virus control: 10 micrograms per ml, 7-10 days"}, "HUVEC": {"tested_on": "HUVEC", "experiment": "Endothelial tube formation assay", "assay_type": "cell-based, human", "conditions": "10 micrograms per ml, 20 hours", "excerpt": "Positive control was vehicle only."}, "Human A549 cells": {"tested_on": "Human A549 cells", "experiment": "Apoptosis prevention assay (C2 ceramide, Annexin-5)", "assay_type": "cell-based", "conditions": "10 micrograms per ml, A549, 30 min pretreatment", "description": "Human A549 cells (carcinomic human alveolar basal epithelial cells) were utilized in the experiments employing the Annexin-5 apoptosis assay. […] A549 cells were pretreated for 30 min with test peptides—10 micrograms per ml—followed by the exposure to C2 ceramide."}}, "note": "Ends that are not written are not given here."}
{"compound": "Asp-Phe-Asp-Met-Leu-Arg-Cys-Met-Leu-Gly-Arg-Val-Tyr-Arg-Pro-Cys-Trp-Gln-Val-OH (DFDMLRCMLGRVYRPCWQV-OH; ends and bridges not checked) [peptide 1, melanin concentrating hormone (MCH), commercially available peptide]", "values": [{"measurement": "IL-5 spleen cells; TH2 response (% of control)", "setting": "[1]", "result": "78.8 % of control"}, {"measurement": "IL-4 spleen cells; TH2 response (% of control)", "setting": "[2]", "result": "85.9 % of control"}, {"measurement": "inhibition of HBV replication on tested liver cells", "setting": "[3]", "result": "no effect"}, {"measurement": "IL-2 spleen cells (% of control)", "setting": "[4]", "result": "42.3 % of control"}, {"measurement": "inhibition of the LPS-induced TNF-alpha production in human macrophages", "setting": "[5]", "result": 20.6, "unit": "%"}, {"measurement": "decrease of the proliferation of specifically stimulated human B-cells", "setting": "[6]", "result": 20.9, "unit": "%"}, {"measurement": "IFNγ spleen cells; TH1 response (% of control)", "setting": "[7]", "result": "90.4 % of control"}, {"measurement": "inhibition of the migration of human endothelial cells", "setting": "[8]", "result": 39, "unit": "%"}, {"measurement": "TNF-a spleen cells; TH1 response (% of control)", "setting": "[9]", "result": "92.1 % of control"}, {"measurement": "inhibition of HCMV plaque formation compared to the virus control", "setting": "HCMV strain AD169", "result": "did not inhibit"}, {"measurement": "inhibition of the tube formation of endothelial cells", "setting": "HUVEC", "result": 19, "unit": "%"}, {"measurement": "prevention (reduction) of the ceramide-induced apoptosis on human lung cells", "setting": "Human A549 cells", "result": "did not show any reducing or increasing effect"}]}
{"compound": "Nc1nc(O)c2ncn(COC(CO)CO)c2n1", "note": "[Ganciclovir, reference compound]", "values": [{"measurement": "antiviral activity of positive control compound (HCMV)", "setting": "HCMV strain AD169; positive control", "result": "expected levels of antiviral activity"}]}
{"compound": "Tyr-Gly-Gly-Phe-Met-OH [peptide 2]", "values": [{"measurement": "IL-5 spleen cells; TH2 response (% of control)", "setting": "[1]", "result": "67.5 % of control"}, {"measurement": "IL-4 spleen cells; TH2 response (% of control)", "setting": "[2]", "result": "100.4 % of control"}, {"measurement": "inhibition of HBV replication on tested liver cells", "setting": "[3]", "result": "no effect"}, {"measurement": "IL-2 spleen cells (% of control)", "setting": "[4]", "result": "86.3 % of control"}, {"measurement": "inhibition of the LPS-induced TNF-alpha production in human macrophages", "setting": "[5]", "result": 28.4, "unit": "%"}, {"measurement": "decrease of the proliferation of specifically stimulated human B-cells", "setting": "[6]", "result": 12.0, "unit": "%"}, {"measurement": "IFNγ spleen cells; TH1 response (% of control)", "setting": "[7]", "result": "64.9 % of control"}, {"measurement": "TNF-a spleen cells; TH1 response (% of control)", "setting": "[9]", "result": "89.3 % of control"}, {"measurement": "inhibition of HCMV plaque formation compared to the virus control", "setting": "HCMV strain AD169", "result": "did not inhibit"}, {"measurement": "inhibition of the tube formation of endothelial cells", "setting": "HUVEC", "result": 25, "unit": "%"}, {"measurement": "prevention (reduction) of the ceramide-induced apoptosis on human lung cells", "setting": "Human A549 cells", "result": 17.4, "unit": "%"}]}
